# According to patent publication US12545944B2, “Method of detection” (priority 2017, dated 2026):
# Experiments:
# [1] = cited from earlier work
# [2] = system: carbapenemase-producing E. coli strains; experiment: Colistin MIC by broth microdilution (BMD), CLSI/EUCAST; assay type: cell-based, Escherichia coli
molecule,measurement,setting,value
CCCCCC [hexane],Solubility in water,[1],0.014 g/100 g
COCCOCCOC [diethylene glycol dimethyl ether],Solubility in water,[1],Miscible
C1CCCCC1 [cyclohexane],Solubility in water,[1],<0.1 g/100 g
CCO [ethanol],Solubility in water,[1],Miscible
"C[S+](C)[O-] [dimethyl sulfoxide (DMSO), dimethyl sulfoxide]",Solubility in water,[1],25.3 g/100 g
OCC(O)CO [glycerin],Solubility in water,[1],Miscible
Colistin (Polymyxin E),Colistin MIC,"[2]; KPC-2 producing E. coli, N=1, mcr-1/-2 PCR negative",0.25 µg/mL
same,Colistin MIC,"[2]; KPC-3 producing E. coli, N=1, mcr-1/-2 PCR negative",0.25 µg/mL
same,Colistin MIC,"[2]; NDM-1 producing E. coli, N=1, mcr-1/-2 PCR negative",0.5 µg/mL
same,Colistin MIC,"[2]; NDM-1 producing E. coli, N=1, mcr-1 PCR positive, PRR 1.73 ± 0.23",4 µg/mL
same,Colistin MIC,"[2]; NDM-1 producing E. coli, N=1, mcr-1 PCR positive, PRR 2.34 ± 0.12",4 µg/mL
same,Colistin MIC,"[2]; NDM-1 producing E. coli, N=3, mcr-1/-2 PCR negative",0.25 µg/mL
same,Colistin MIC,"[2]; NDM-5 producing E. coli, N=2, mcr-1/-2 PCR negative",0.25 µg/mL
same,Colistin MIC,"[2]; NDM-5 producing E. coli, N=3, mcr-1/-2 PCR negative",0.5 µg/mL
same,Colistin MIC,"[2]; OXA-48 producing E. coli, N=1, mcr-1/-2 PCR negative",1 µg/mL
same,Colistin MIC,"[2]; OXA-48 producing E. coli, N=1, mcr-1 PCR positive, PRR 1.29 ± 0.63",4 µg/mL
same,Colistin MIC,"[2]; OXA-48 producing E. coli, N=26, mcr-1/-2 PCR negative",0.5 µg/mL
same,Colistin MIC,"[2]; OXA-48 producing E. coli, N=27, mcr-1/-2 PCR negative",0.25 µg/mL
same,Colistin MIC,"[2]; OXA-181 + NDM-5 producing E. coli, N=1, mcr-1/-2 PCR negative",0.25 µg/mL
same,Colistin MIC,"[2]; OXA-181 producing E. coli, N=4, mcr-1/-2 PCR negative",0.25 µg/mL
same,Colistin MIC,"[2]; OXA-204 producing E. coli, N=1, mcr-1/-2 PCR negative",0.25 µg/mL
same,Colistin MIC,"[2]; OXA-244 producing E. coli, N=1 (first line), mcr-1/-2 PCR negative",0.25 µg/mL
same,Colistin MIC,"[2]; OXA-244 producing E. coli, N=1 (second line), mcr-1/-2 PCR negative",0.5 µg/mL
same,Colistin MIC,"[2]; VIM-1 producing E. coli, N=1, mcr-1/-2 PCR negative",0.5 µg/mL
same,Colistin MIC,"[2]; VIM-4 producing E. coli, N=1, mcr-1/-2 PCR negative",0.25 µg/mL
same,MICs of colistin,"[2]; two NDM-1 and one OXA-48 producer, resistant to colistin, positive for the mcr-1 gene",4 mg/L
Clc1ccccc1 [chlorobenzene],Solubility in water,[1],0.05 g/100 g
CC(C)O [2-propanol],Solubility in water,[1],Miscible
"CN1CCCC1=O [N-methyl-2-pyrrolidinone (NMP), N-methyl-2-pyrrolidinone]",Solubility in water,[1],10 g/100 g
"COCCOC [1,2-dimethoxy-ethane (glyme, DME), 1,2-dimethoxy-ethane]",Solubility in water,[1],Miscible
CCOC(C)=O [ethyl acetate],Solubility in water,[1],8.7 g/100 g
"CN(C)P(N(C)C)N(C)C [Hexamethyl-phosphorous triamide (HMPT), Hexamethylphosphorous triamide]",Solubility in water,[1],Miscible
